Test results published in patent publication US20150105252A1, “SUBSTITUTED PYRAZOLES AS HERBICIDES” (E I DU PONT DE NEMOURS AND COMPANY, priority 2013, published 2015).

Key:
corn = assay: Test A preemergence; assay type: in vivo, Zea mays; conditions: preemergence; for Corn plant response rating (0 to 100 scale): 125 g ai/ha, visual injury approx. 10 days after treatment; for Corn plant response rating: 500 g ai/ha, visual injury after approx. 10 days, 0 to 100 scale (0 no effect, 100 complete control)
Method in brief: (§1)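 Both timings tested concurrently in loam/sand soil: preemergence by directed soil spray, postemergence on plants of 2–10 cm at the one- to two-leaf stage. Greenhouse holding period was approximately 10 days before visual injury assessment (0–100, 0 = no effect).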

velvetleaf [1] = assay: Test C preemergence; assay type: in vivo, Abutilon theophrasti
Method in brief: (§2)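 In this greenhouse assay, seeded soil (loam plus sand) or emerged seedlings in peat-vermiculite medium were treated with formulated compound. Roughly two weeks later (13–15 days), each species was scored visually relative to controls, from 0 for no effect to 100 for complete control.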

waterhemp = assay: Test C postemergence; assay type: in vivo, Amaranthus rudis; conditions: postemergence; for Plant response rating, Waterhemp: 250 g ai/ha, scale 0 to 100 (0 no effect, 100 complete control); for Waterhemp plant response rating: scale 0 to 100
Method in brief: as §2

pigweed = assay: Test A postemergence; assay type: in vivo, Amaranthus retroflexus
Method in brief: as §1

johnsongrass = assay: Test C postemergence; assay type: in vivo, Sorghum halepense; conditions: for Plant response rating (scale of 0 to 100 where 0 is no effect and 100 is complete control), Johnsongrass: Postemergence, 31 g ai/ha, visually evaluated after 13 to 15 days; for Johnsongrass plant response rating / Plant response rating, Johnsongrass: postemergence; for Johnsongrass plant response rating: 62 g ai/ha, scale 0 to 100
Method in brief: as §2

velvetleaf [2] = assay: Test A postemergence; assay type: in vivo, Abutilon theophrasti
Method in brief: as §1

rice = assay: Test B flood; assay type: in vivo, Oryza sativa; conditions: 250 g ai/ha, visual rating on 0 to 100 scale (0 no effect, 100 complete control), 13 to 15 days
Method in brief: (§3)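 Two-leaf-stage plants, pots flooded (3 cm above soil) and treated through the water, which stayed at that depth. After 13–15 days in greenhouse conditions, visual assessment versus controls: 0 is no effect, 100 complete control, dash means no result.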

wheat [3] = assay: Test C postemergence; assay type: in vivo, Triticum aestivum; conditions: postemergence; for Plant response rating, Wheat: 250 g ai/ha, scale 0 to 100 (0 no effect, 100 complete control); for Wheat plant response rating: scale 0 to 100
Method in brief: as §2

crabgrass, large = assay: Test C preemergence; assay type: in vivo, Digitaria sanguinalis
Method in brief: as §2

velvetleaf [4] = assay: Test C postemergence; assay type: in vivo, Abutilon theophrasti; conditions: postemergence; for Plant response rating, Velvetleaf: 250 g ai/ha, scale 0 to 100 (0 no effect, 100 complete control); for Velvetleaf plant response rating: scale 0 to 100
Method in brief: as §2

wheat [5] = assay: Test C preemergence; assay type: in vivo, Triticum aestivum
Method in brief: as §2

velvetleaf [6] = assay: Test A preemergence; assay type: in vivo, Abutilon theophrasti; conditions: preemergence; for Velvetleaf plant response rating (0 to 100 scale): 125 g ai/ha, visual injury approx. 10 days after treatment; for Velvetleaf plant response rating: 500 g ai/ha, visual injury after approx. 10 days, 0 to 100 scale (0 no effect, 100 complete control)
Method in brief: as §1

lambsquarters = assay: Test C postemergence; assay type: in vivo, Chenopodium album; conditions: for Plant response rating (scale of 0 to 100 where 0 is no effect and 100 is complete control), Lambsquarters: Postemergence, 31 g ai/ha, visually evaluated after 13 to 15 days; for Lambsquarters plant response rating / Plant response rating, Lambsquarters: postemergence; for Lambsquarters plant response rating: 62 g ai/ha, scale 0 to 100
Method in brief: as §2

foxtail, giant = assay: Test A preemergence; assay type: in vivo, Setaria faberii; conditions: preemergence; for Foxtail, Giant plant response rating (0 to 100 scale): 125 g ai/ha, visual injury approx. 10 days after treatment; for Foxtail, Giant plant response rating: 500 g ai/ha, visual injury after approx. 10 days, 0 to 100 scale (0 no effect, 100 complete control)
Method in brief: as §1

sedge, umbrella = assay: Test B flood; assay type: in vivo, Cyperus difformis; conditions: 250 g ai/ha, visual rating on 0 to 100 scale (0 no effect, 100 complete control), 13 to 15 days
Method in brief: as §3

[7] = Preemergence, rate head not shown (block before 16 g ai/ha), scale 0 to 100
[8] = preemergence, 62 g ai/ha, scale 0 to 100 (0 no effect, 100 complete control), 13 to 15 days
[9] = preemergence, 125 g ai/ha, 13 to 15 days, scale 0 to 100, 0 = no effect, 100 = complete control
[10] = preemergence, 250 g ai/ha, scale 0 to 100, 0 is no effect, 100 is complete control
[11] = Postemergence, 125 g ai/ha, 0 to 100 scale, 0 no effect, 100 complete control
[12] = Postemergence, 500 g ai/ha, 0 to 100 scale (0 no effect, 100 complete control)
[13] = 250 g ai/ha, scale 0 to 100 (0 no effect, 100 complete control)
[14] = 125 g ai/ha, scale 0 to 100, 0 no effect, 100 complete control
[15] = preemergence, 31 g ai/ha, visual rating, scale 0 to 100 (0 no effect, 100 complete control), 13 to 15 days
[16] = postemergence, 125 g ai/ha, about 10 days, visual rating on 0 to 100 scale (0 no effect, 100 complete control)

Compound	Corn plant response rating (0 to 100 scale) (corn)	Corn plant response rating (corn)	Velvetleaf plant response rating (velvetleaf [1]; [8])	Plant response rating, Velvetleaf (velvetleaf [1]; [9])	Velvetleaf plant response rating (velvetleaf [1]; [10])	Plant response rating, Waterhemp (waterhemp)	Waterhemp plant response rating (waterhemp)	Pigweed plant response rating (pigweed; [12])	Plant response rating (scale of 0 to 100 where 0 is no effect and 100 is complete control), Johnsongrass (johnsongrass)	Johnsongrass plant response rating (johnsongrass)	Plant response rating, Johnsongrass (johnsongrass; [13])	Plant response rating, Johnsongrass (johnsongrass; [14])	Velvetleaf plant response rating (velvetleaf [2]; [12])	Plant response rating, Rice (rice)	Plant response rating, Wheat (wheat [3])	Wheat plant response rating (wheat [3])	Crabgrass, Large plant response rating (crabgrass, large; [8])	Plant response rating, Crabgrass, Large (crabgrass, large; [9])	Crabgrass, Large plant response rating (crabgrass, large; [10])	Plant response rating, Velvetleaf (velvetleaf [4])	also measured
CCc1cc(C(=O)NCC(F)(F)F)nn1Cc1ccnc(Br)c1 [Compound 224]	30	90	65	100	100	45	50	100	20	5	5	5	100	20	5	0	100	100	100	25	Plant response rating, Velvetleaf (velvetleaf [1]; [7]): 40; Pigweed plant response rating (pigweed; [11]): 100; Velvetleaf plant response rating (velvetleaf [2]; [11]): 60; Plant response rating, Crabgrass, Large (crabgrass, large; [7]): 100; Velvetleaf plant response rating (velvetleaf [4]): 20; Plant response rating, Wheat (wheat [5]; [7]): 0; Wheat plant response rating (wheat [5]; [8]): 0; Plant response rating, Wheat (wheat [5]; [9]): 10; Wheat plant response rating (wheat [5]; [10]): 60; Velvetleaf plant response rating (0 to 100 scale) (velvetleaf [6]): 100; Plant response rating (scale of 0 to 100 where 0 is no effect and 100 is complete control), Lambsquarters (lambsquarters): 35; Lambsquarters plant response rating (lambsquarters): 40; Plant response rating, Lambsquarters (lambsquarters; [13]): 60; Plant response rating, Lambsquarters (lambsquarters; [14]): 45; Foxtail, Giant plant response rating (0 to 100 scale) (foxtail, giant): 100; Foxtail, Giant plant response rating (foxtail, giant): 100; Plant response rating, Sedge, Umbrella (sedge, umbrella): 90
CCCc1cc(C(=O)NC(C)C)nn1Cc1ccnc(C(F)(F)F)c1 [Compound 186]	80	100	100	100	100	90	60	100	5	5	95	5	100	75	20	15	100	100	100	80	Velvetleaf plant response rating (velvetleaf [1]; [15]): 100; Pigweed plant response rating (pigweed; [11]): 60; Velvetleaf plant response rating (velvetleaf [2]; [11]): 20; Crabgrass, Large plant response rating (crabgrass, large; [15]): 100; Velvetleaf plant response rating (velvetleaf [4]): 55; Wheat plant response rating (wheat [5]; [15]): 80; Wheat plant response rating (wheat [5]; [8]): 90; Plant response rating, Wheat (wheat [5]; [9]): 90; Wheat plant response rating (wheat [5]; [10]): 90; Velvetleaf plant response rating (0 to 100 scale) (velvetleaf [6]): 100; Velvetleaf plant response rating (velvetleaf [6]): 100; Plant response rating (scale of 0 to 100 where 0 is no effect and 100 is complete control), Lambsquarters (lambsquarters): 95; Lambsquarters plant response rating (lambsquarters): 65; Plant response rating, Lambsquarters (lambsquarters; [13]): 98; Plant response rating, Lambsquarters (lambsquarters; [14]): 75; Foxtail, Giant plant response rating (0 to 100 scale) (foxtail, giant): 100; Foxtail, Giant plant response rating (foxtail, giant): 100; Plant response rating, Sedge, Umbrella (sedge, umbrella): 80
CCOc1cc(C(=O)NOC(C)C)nn1Cc1ccnc(C(F)(F)F)c1 [Compound 153]	90	100	60	90	100	65	40	100	0	5	5	0	100	40	15	0	98	100	100	65	Velvetleaf plant response rating (velvetleaf [1]; [15]): 10; Pigweed plant response rating (pigweed; [16]): 100; Velvetleaf plant response rating (velvetleaf [2]; [16]): 70; Crabgrass, Large plant response rating (crabgrass, large; [15]): 85; Velvetleaf plant response rating (velvetleaf [4]): 30; Wheat plant response rating (wheat [5]; [15]): 15; Wheat plant response rating (wheat [5]; [8]): 85; Plant response rating, Wheat (wheat [5]; [9]): 90; Wheat plant response rating (wheat [5]; [10]): 90; Velvetleaf plant response rating (0 to 100 scale) (velvetleaf [6]): 90; Velvetleaf plant response rating (velvetleaf [6]): 100; Plant response rating (scale of 0 to 100 where 0 is no effect and 100 is complete control), Lambsquarters (lambsquarters): 65; Lambsquarters plant response rating (lambsquarters): 55; Plant response rating, Lambsquarters (lambsquarters; [13]): 85; Plant response rating, Lambsquarters (lambsquarters; [14]): 75; Foxtail, Giant plant response rating (0 to 100 scale) (foxtail, giant): 100; Foxtail, Giant plant response rating (foxtail, giant): 100; Plant response rating, Sedge, Umbrella (sedge, umbrella): 95
CCCNC(=O)c1cc(OCC)n(Cc2ccnc(C(F)(F)F)c2)n1 [Compound 187]	40	90	100	100	100	95	70	90	0	5	25	5	100	45	15	10	100	100	100	65	Velvetleaf plant response rating (velvetleaf [1]; [15]): 95; Pigweed plant response rating (pigweed; [11]): 100; Velvetleaf plant response rating (velvetleaf [2]; [11]): 90; Crabgrass, Large plant response rating (crabgrass, large; [15]): 100; Velvetleaf plant response rating (velvetleaf [4]): 55; Wheat plant response rating (wheat [5]; [15]): 20; Wheat plant response rating (wheat [5]; [8]): 80; Plant response rating, Wheat (wheat [5]; [9]): 90; Wheat plant response rating (wheat [5]; [10]): 90; Velvetleaf plant response rating (0 to 100 scale) (velvetleaf [6]): 100; Velvetleaf plant response rating (velvetleaf [6]): 100; Plant response rating (scale of 0 to 100 where 0 is no effect and 100 is complete control), Lambsquarters (lambsquarters): 60; Lambsquarters plant response rating (lambsquarters): 75; Plant response rating, Lambsquarters (lambsquarters; [13]): 90; Plant response rating, Lambsquarters (lambsquarters; [14]): 75; Foxtail, Giant plant response rating (0 to 100 scale) (foxtail, giant): 100; Foxtail, Giant plant response rating (foxtail, giant): 100; Plant response rating, Sedge, Umbrella (sedge, umbrella): 90
